The values that follow are results of earlier work, collected in patent US20150352111A1, “Therapeutic Indications of Kinase Inhibitors” (Pulmokine, Inc., priority 2013, published 2015).

One data set relates to PASMCs. Conditions: cited from earlier work.
A further data set concerns phospho-ERK1/2. The note with it: rat MCT model; cited from earlier work.
The subject of another data set is patients with PAH. The note with it: cited from earlier work.
The test system of the next data set is rat MCT model of PAH. The note with it: cited from earlier work.

Regarding `Cc1ccc(NC(=O)c2ccc(CN3CCN(C)CC3)cc2)cc1Nc1nccc(-c2cccnc2)n1` [imatinib], the “migration of PASMCs” value in the data set with PASMCs is “inhibited”. Further, the phospho-ERK1/2 entry in the data set on phospho-ERK1/2 is listed as “reduction”. Besides, the “primary efficacy parameter (6MWD) compared with placebo” value in the data set with patients with PAH (6 month period, US 2011/0190313) is recorded as “did not improve”. The 6-min walk distance result in the data set on patients with PAH (IMPRES trial, patients with severe PAH) was “improvement”. For the same molecule, in the data set on rat MCT model of PAH, the RVSP result was “decreased” and the survival result is on record as “improved”.
